Source: patent US20180125856A1, “USE OF GLUCOCORTICOID RECEPTOR ANTAGONIST AND SOMATOSTATIN ANALOGUES TO TREAT ACTH-SECRETING TUMORS” (Corcept Therapeutics, Inc., priority 2015, published 2018)

System: human patient with an ectopic ACTH-secreting pancreatic neuroendocrine tumor
Test: Tolerability in a patient
Format: in vivo
Details: week 20, octreotide LAR continued
Description: Mifepristone was resumed for an additional 12-month extension period. […] The collection of cortisol and ACTH data was less frequent during the extension study.

In the case of `CC#C[C@]1(O)CC[C@H]2[C@@H]3CCC4=CC(=O)CCC4=C3[C@@H](c3ccc(N(C)C)cc3)C[C@@]21C` [mifepristone, 17-β-hydrox-11-β-(4-dimethyl-aminophenyl)17-α-(1-propynyl)estra-4,9-dien-3-one], the “adverse events for which the drug was briefly stopped” value is reported as “significant fatigue, low appetite, and nausea”.
